Test system: 3T3-L1 cells
Assay: Glucose transport assay
Assay type: cell-based
Conditions: differentiated 3T3-L1 preadipocyte cell line, in the absence of insulin; 0.1 μM to 500 μM, 1-4 hours
Text: This assay was used to assess the ability of the compounds of the invention to inhibit phosphatase activity that is involved in the signaling pathway that regulates the insulin-induced facilitated transport of glucose into adipocytes. […] Any compounds of the invention may be tested in this assay.
The cell line used for the glucose transport assay was 3T3-L1, a preadipocyte cell line (American Type Culture Collection CCL92.1) which overexpress the insulin receptor. The 3T3-L1 cells were first differentiated by treating cells under confluent growth in DMEM containing 10% fetal bovine serum (FBS) with 0.5 mM 3-isobutyl-1-methyl-xanthine, 5 μg/ml porcine insulin, […] dexamethasone for 2 days. The cells were then grown in DMEM containing 10% FBS and 5 μg/ml porcine insulin for two days, after which the cells were cultured in DMEM containing only 10% FBS.
Cells for use in the assay were first grown overnight in DMEM media and 1% FBS at 37° C. at 5% CO2. Two hours before use, the overnight media was replaced with serum free DMEM containing 5 mM glucose. […] The wells were washed each with 200 μl PBS which was transferred to the corresponding scintillation vial. ^3 H radioactivity was counted with a Beckman counter.

CC1CC(=O)c2c(cc3c(-c4c(O)cc(O)c5c(O)c6c(cc45)OC(C)CC6=O)c(O)cc(O)c3c2O)O1 (stereo not shown) [Compound 1]
uptake of 2-deoxy-3H-glucose: Dose response effect
